In test [1] the test system is (CGG)16 (DNA, repeat) CGGCGGCGGCGGCGGCGGCGGCGGCGGCGGCGGCGGCGGCGGCGGCGG
In words: UV melting, 260 nm. To be noted: 50 mM NaCl; 20 mM Tris-HCl pH 7.3; 12 μM compound, 1 μM DNA.

Test [2] concerns GC1 hairpin (DNA, hairpin) AAAGCTTTTGTAAAGCTTT
In words: SPR kinetics, 1:1 Langmuir. To be noted: 50 mM NaCl; 20 mM Tris-HCl pH 7.3; ka/kd. On the technique in general: In SPR one partner is held on a chip, and binding of the other changes the refractive index at the surface.

The test system of test [3] is GC2 hairpin (DNA, hairpin) ATGCGCATTGTATGCGCAT
In words: SPR kinetics, bivalent ligand model. The conditions noted are these: 50 mM NaCl; 20 mM Tris-HCl pH 7.3; ka/kd; site 1 of 2.

Test [4] has as its system GG2 hairpin (DNA, hairpin) ATGCGGCATTGTATGCGGCAT
In words: SPR kinetics, bivalent ligand model. The conditions noted are these: 50 mM NaCl; 20 mM Tris-HCl pH 7.3; ka/kd; site 1 of 2.

Test [5] has as its system AT2 hairpin (DNA, hairpin) ATGCATGCATTGTATGCATGCAT
In words: SPR kinetics, bivalent ligand model. To be noted: 50 mM NaCl; 20 mM Tris-HCl pH 7.3; ka/kd; site 1 of 2.

Starred links: 1 amine or outer side, 2 acyl side, 3 side chain; linkers in the order of their positions; H or OH if unused. Positions of bridges follow the written chain, without caps; N, C: chain ends. Non-standard residues stand in square brackets, D forms with d. Residues, ends and D or L forms follow the SMILES beside them. Chains are numbered I, II in the order given. Actinocin(9to1) = Cc1c2oc3c(C)ccc(C(=O)[*:1])c3nc-2c(C(=O)[*:2])c(N)c1=O; NMeV = CN[C@H](C(=O)O)C(C)C; Sar = CNCC(=O)O

For orientation: ΔTm means the shift of the melting midpoint relative to a reference.

In the case of `Cc1c2oc3c(C)ccc(C(=O)N[C@@H]4C(=O)N[C@H](C(C)C)C(=O)N5CCC[C@H]5C(=O)N(C)CC(=O)N(C)[C@@H](C(C)C)C(=O)O[C@@H]4C)c3nc-2c(C(=O)N[C@@H]2C(=O)N[C@H](C(C)C)C(=O)N3CCC[C@H]3C(=O)N(C)CC(=O)N(C)[C@@H](C(C)C)C(=O)O[C@@H]2C)c(N)c1=O` (I: T[dV]P[Sar][NMeV] / II: T[dV]P[Sar][NMeV]; ester I:1-I:C, II:1-II:C; linker I:N-II:N via Actinocin(9to1)), the thermal shift (ΔTm) in test [1] is 23.4 °C. The Ka1 in test [2] was 2.29e+06 M⁻¹; in test [3] it was 6.07e+06 M⁻¹; in test [4], 3.08e+06 M⁻¹; in test [5], 1.287e+07 M⁻¹.
For the compound `Cc1c2ccncc2c(C)c2c1[nH]c1ccccc12`, in test [1], the shift in melting temperature (ΔTm) was 11.8 °C.
The same measure, in the same setting: as for `COc1cccc2c1C(=O)c1c(O)c3c(c(O)c1C2=O)C[C@@](O)(C(C)=O)C[C@@H]3O[C@H]1C[C@H](N)[C@H](O)[C@H](C)O1`, the figure is 10.1 °C.

For the origin of these results see publication PMC3627577 (2013).
